Where “and” joins values, the source holds several entries; their conditions need not be identical. Equal entries are not always repeated.
Columns and labels:
Type in all cases: cell-based, human
[1] = tested on: HCT116 (p53+/+) cells; assay: Cell proliferation assay (WST-1), HCT116 (p53+/+); details: absorbance at 450 nm
Protocol: (§1) After transfection, a cell proliferation assay was conducted each day using EZ-Cytox (Daeilbio, WST-1; #EZ-1000), using the manufacturer’s instructions. For P50429, the cells were seeded at 3000 or 6000 cells per well with an inhibitor concentration of 25 μM and 12.5 to 100 μM, respectively. EZ-Cytox (DoGEN, EZ-3000) was diluted using media and incubated for 30 min. The absorbance was measured at a wavelength of 450 nm using a microplate absorbance reader (Bio-Rad).

[2] = tested on: HCT116 (p53-/-) cells; assay: Cell proliferation assay (WST-1), HCT116 (p53-/-); details: for Cell viability (WST-1 absorbance): P53-/-, absorbance at 450 nm
Protocol: as §1

[3] = tested on: HCT116 (p53+/+) cells; assay: Colony formation assay, HCT116 (p53+/+); details: for Colony formation, colony number: WT (p53+/+), 10 days, three experiments and AVERAGE
Protocol: (§2) The cells were re-suspended with trypsin-EDTA, and 1000 cells were seeded in 35 mm dishes 48 h after transfection. After 10 days, the cells were washed with PBS and fixed in 4% paraformaldehyde for 10 min before being stained with Crystal violet for 30 min and washed with PBS.

[4] = tested on: HCT116 (p53-/-) cells; assay: Colony formation assay, HCT116 (p53-/-); details: for Colony formation, colony number: KO (p53-/-), 10 days, three experiments and AVERAGE
Protocol: as §2

[5] = tested on: HCT116 (p53+/+) cells; assay: Q-PCR relative expression levels, HCT116 (p53+/+)
[6] = tested on: HCT116 (p53-/-) cells; assay: Q-PCR relative expression levels, HCT116 (p53-/-)
From the text: (d) Western blot analysis was
The data represent the mean ± SD (*;p<0.05,
(1 picture or pasted object on this page, not shown here)

[7] = tested on: p53; assay: Western blot analysis of protein levels, HCT116 (p53+/+)
Protocol: Stained colonies were counted in three independent experiments. The data represent the mean ± SD (*: p < 0.05, **: p < 0.005, and ***: p < 0.0005).
A total of 10–50 μg protein was extracted from cells and used for Western blot analysis. Briefly, the cells were lysed using protein lysis buffer (50 mM Tris–Cl, 150 mM NaCl, 1% Triton X-100, 1 mM EDTA, 200 mM Na3VO4, 1x proteinase inhibitor, pH 7.4) and the protein concentration was measured using a Micro BCA^TM Protein Assay kit (Thermo Scientific), based on the standard curve of BSA. The antibodies used for immunoblot analysis were purchased and assessed for equal loading as follows: rabbit anti-USP7 (#A300-034, dilution ratio 1:1000) and rabbit anti-USP47 (#A301-048A, 1:1000) from Bethyl Laboratories; mouse anti-Flag (#F1804, 1:1000) from Sigma Aldrich; rabbit anti-ubiquitin (#3933, 1:2000) from Cell Signaling; mouse anti-p53 (#sc-126, 1:1000), and mouse anti-HSP90α/β (#sc-13119, 1:5000) from Santa Cruz Biotechnology; rabbit anti-β-actin (#LF-PA0207, 1:5000) from AbFrontier. Samples were analyzed using SDS-PAGE, and chemiluminescence was measured using the Ez-Capture MG imaging system (ATTO Corporation).

## USP47i: siRNA targeting USP47 (5′-TGAAAAGGGATGTGCAAAA-3′) (chemistry not given here)
[1]; day 1 after transfection
  Cell viability (WST-1 absorbance): 0.327
[1]; day 2 after transfection
  Cell viability (WST-1 absorbance): 0.527
[1]; day 3 after transfection
  Cell viability (WST-1 absorbance): 0.7565
[1]; day 4 after transfection
  Cell viability (WST-1 absorbance): 0.9428
[2]; day 1 after transfection
  Cell viability (WST-1 absorbance): 0.306
[2]; day 2 after transfection
  Cell viability (WST-1 absorbance): 0.559
[2]; day 3 after transfection
  Cell viability (WST-1 absorbance): 0.8146
[2]; day 4 after transfection
  Cell viability (WST-1 absorbance): 1.235
[2]; p53-deficient HCT116
  cell viability compared to control cells: did not yield any discernible differences
[3]; HCT116 p53+/+, Fig. 1b
  decrease in the number of colonies relative to control cells: approximately 30%
[3]
  Colony formation, colony number: 271 and 259 and 252
[3]; mean
  Colony formation, colony number: 260.667
[4]
  Colony formation, colony number: 367 and 379 and 377
[4]; mean
  Colony formation, colony number: 374.333
[4]; p53-deficient HCT116
  colony formation compared to control cells: did not yield any discernible differences
[5]
  relative expression level of USP7 (Q-PCR): 1.017
  relative expression level of USP47 (Q-PCR): 0.5092
[6]
  relative expression level of USP7 (Q-PCR): 0.9689
  relative expression level of USP47 (Q-PCR): 0.3387
[7]
  protein levels of p53: increased

Source: article PMC10516900 (Communications Biology, 2023)
